Values after ≈ are worked out from the molar mass of the structure shown. Where two headings read alike, the source gives them in different places.
Columns and labels:
M. avium 11 = test: microbe, parasite or virus in culture; format: cell-based; conditions: Mycobacterium avium, 11, 96 h
[1] = test system: M. abscessus subsp. abscessus M199; test: microbe, parasite or virus in culture; format: cell-based, Mycobacterium abscessus; conditions: Mycobacteroides abscessus, 72 h
[2] = test system: M. abscessus subsp. abscessus M404; test: microbe, parasite or virus in culture; format: cell-based, Mycobacterium abscessus; conditions: Mycobacteroides abscessus, 72 h
[3] = test system: M. abscessus subsp. abscessus M422; test: microbe, parasite or virus in culture; format: cell-based, Mycobacterium abscessus; conditions: Mycobacteroides abscessus, 72 h
[4] = test system: M. abscessus subsp. bolletii M232; test: microbe, parasite or virus in culture; format: cell-based, Mycobacterium abscessus; conditions: Mycobacteroides abscessus, 72 h
M. abscessus Bamboo [5] = test: MIC and MBC determination in culture tubes (planktonic); format: cell-based, Mycobacterium abscessus; conditions: Mycobacteroides abscessus
[6] = test system: M. abscessus Bamboo biofilms; test: Biofilm growth inhibition assay (biofilm MIC and MBC); format: cell-based, Mycobacterium abscessus
Experimental: The biofilm growth inhibition assay was performed as previously described ([52]). Innovotech MBEC 96-well Biofilm Assay Plates (Innovotech 19111, Edmonton, AB, Alberta, Canada) were used, and the supplier’s manual was followed with minor modifications. Midlog phase M. abscessus Bamboo precultures (OD600 = 0.4–0.6) were spun down at 3,200 × g for 10 min at 25°C and washed with 7H9 medium without Tween 80 (7H9nt). Bacteria were resuspended into 25 ml 7H9nt to an OD600 = 0.0125 (1.0 × 10^6 CFU/ml). 150 μl of bacteria suspension was dispensed into each well of MBEC multititer plates and the polystyrene protrusions (pegs) of the MBEC lid were inserted into the culture-containing wells for 24 h at 37°C on an orbital shaker at 110 rpm to allow attachment of the bacteria to the pegs and initiation of biofilm growth. The lids with the pegs (now with 1-day-old biofilms) were transferred to new MBEC multititer plates containing 150 μl of fresh 7H9nt medium per well without bacteria (0 h time point). After that, the lids with biofilm-laden pegs were transferred once a day to a new multititer plate containing fresh 7H9nt medium. To measure growth of the biofilm formed on the peg, the pegs were washed in 200 μl of 7H9nt medium before they were aseptically removed and placed in 1.7 ml microcentrifuge tubes (VWR 87003-294, Rador, PA, United States) containing 500 μl PBS/Tween 80. The microcentrifuge tubes were vigorously vortexed at 2,000 rpm for 90 s at 25°C to detach the bacteria from the pegs before samples were serially diluted and plated for the determination of CFU/peg. […] The average drug-free biofilm growth was calculated by subtracting the average 24 h CFU/peg value from the average 72 h CFU/peg value for the untreated control pegs. The biofilm MIC was defined as the lowest drug concentration that reduced the CFU/peg by 90% relative to the average drug-free biofilm growth.

[7] = test system: anaerobic, nonreplicating M. abscessus Bamboo; test: MBC determination under anaerobic conditions; format: cell-based, Mycobacterium abscessus; conditions: 48 h drug exposure
[8] = test system: M. abscessus Bamboo RM2 (GyrA D91N); test: microbe, parasite or virus in culture; format: cell-based, Mycobacterium abscessus
[9] = test system: M. abscessus Bamboo RM3 (GyrA D91N); test: microbe, parasite or virus in culture; format: cell-based, Mycobacterium abscessus
[10] = test system: M. abscessus Bamboo RM4 (GyrA D91G); test: microbe, parasite or virus in culture; format: cell-based, Mycobacterium abscessus
[11] = test system: M. abscessus ATCC 19977 MXF_R1 (GyrA D96Y); test: microbe, parasite or virus in culture; format: cell-based, Mycobacterium abscessus; conditions: Mycobacteroides abscessus, ATCC19977
[12] = Stability in microsomes (intrinsic clearance); format: in vitro ADME, mouse
Experimental: (§1) Intrinsic clearance (CLi) values were determined in mouse and human liver microsomes. Test compounds (final concentration 0.5 μM) were incubated at 37°C for 30 min in 50 mM potassium phosphate buffer (pH 7.4) containing 0.5 mg microsomal protein/ml. The reaction was started by addition of cofactor NADPH. At 10 different time points (from zero to 30 min) an aliquot (90 μl) was taken, quenched with acetonitrile-methanol containing an appropriate internal standard, centrifuged and analyzed by LC-MS/MS. The intrinsic clearance (CLi) was determined using the following equation: CLi=k*(ml of incubation/mg microsomal protein)*(mg microsomal protein/g liver)
(§2) Where k is the turn-over rate constant of the ln (% remaining compound) versus time regression and mg microsomal protein/g liver is 52.5 for both mouse and human.

[13] = Stability in microsomes (intrinsic clearance); format: in vitro ADME, human
Experimental: as §1, §2

[14] = test system: M. abscessus subsp. abscessus K21; test: M. abscessus mouse infection model; format: in vivo, Mycobacterium abscessus; conditions: NOD SCID mice, intranasal infection, 400 mg/kg oral once daily for 10 days; statistically significant
Experimental: In vivo efficacy determinations were carried out as described previously, using 8-week-old female NOD.CB17-Prkdc^scid/NCrCrl (NOD SCID) mice (Charles River Laboratories) and the M. abscessus subsp. abscessus K21 strain ([48]). Briefly, anesthetized animals were infected by intranasal delivery of ∼10^6 CFU of M. abscessus subsp. abscessus K21. Acute infection was achieved within 1 day. Drugs or the vehicle control was administered to NOD SCID mice once daily for 10 consecutive days by oral gavage, starting from 1 day postinfection. Clarithromycin was formulated in 0.4% methyl cellulose–sterile water and administered at a dose of 250 mg/kg. […] EC/11716 was formulated in 0.4% methyl cellulose–sterile water and administered at 400 mg/kg. All mice were euthanized 24 h after the last dose (11 days postinfection), and their lungs and spleen were aseptically removed prior to homogenization. The bacterial load in these organs was determined by plating serial dilutions of the organ homogenates onto Middlebrook 7H11 agar (BD Difco) supplemented with 0.2% (vol/vol) glycerol and 10% (vol/vol) OADC. The agar plates were incubated for 5 days at 37°C prior to counting of colonies. All studies were conducted in accordance with the GSK Policy on the Care, Welfare and Treatment of Laboratory Animals and were reviewed the Institutional Animal Care and Use Committee either at GSK or by the ethical review process at the institution where the work was performed. All experiments involving live animals were approved by the Institutional Animal Care and Use Committee of the Center for Discovery and Innovation, Hackensack Meridian Health.

M. abscessus Bamboo [15] = test system: M. abscessus Bamboo

`COc1cnc2ccc(=O)n(CCN3CCC(NCc4cnc(CO)c(Cl)c4)CC3)c2c1` [EC/11716] showed an MIC (M. avium 11) of 1.1 µM (≈ 0.504 µg/mL), an MIC [1] of 3.8 µM (≈ 1.74 µg/mL) and an MIC [2] of 2.6 µM (≈ 1.19 µg/mL). The MIC [3] was 1.8 µM (≈ 0.824 µg/mL), the MIC [4] was 2.5 µM (≈ 1.14 µg/mL) and the MBC (M. abscessus Bamboo [5]; 0 h, 10-fold reduction in CFU/ml vs day 0) was 3.1 µM (≈ 1.42 µg/mL). For the same compound, the MIC (M. abscessus Bamboo [5]; 48 h, day 2) was 1.5 µM (≈ 0.687 µg/mL), the “increase of biofilm MBC relative to planktonic MBC” value ([6]; M. abscessus Bamboo biofilm vs planktonic bacteria) was 2 fold and the MBC ([6]; Mycobacteroides abscessus, Biofilm, M. abscessus Bamboo, 10-fold reduction of CFU/peg vs 24 h) was 6.3 µM (≈ 2.89 µg/mL). The MIC ([6]; Mycobacteroides abscessus, Biofilm, M. abscessus Bamboo, 90% reduction of CFU/peg relative to drug-free biofilm growth, 48 h) was 0.78 µM (≈ 0.357 µg/mL), the MBC [7] was over 100 µM and the MBC ([7]; Mycobacteroides abscessus) was over 100 µM. It also gave an MIC [8] of over 100 µM, an MIC ([8]; Mycobacteroides abscessus) of over 100 µM and an MIC [9] of over 100 µM. For the same compound, the MIC ([9]; Mycobacteroides abscessus) was over 100 µM, the MIC [10] was over 100 µM and the MIC ([10]; Mycobacteroides abscessus) was over 100 µM. The MIC [11] was at most 10 µM, the “Mouse In vitro CLint” value ([12]; mouse hepatic microsomes, free base form) was 1.6 ml/min/g tissue and the mouse microsomal clearance ([12]; mouse microsomes) was 1.6 ml/min/g protein. The “Human In vitro CLint” value ([13]; human hepatic microsomes, free base form) was under 0.3 ml/min/g tissue, the Human microsomal clearance ([13]; human microsomes) was under 0.3 ml/min/g protein and the “reduction in lung CFU” value [14] was 1 log. The frequency of resistance (M. abscessus Bamboo [15]) was 1.8 × 10^−8 /CFU.
